Results: patent US12568972B2, “Pyridazinol compounds and derivatives, preparation methods, herbicidal compositions and applications thereof” (Qingdao Kingagroot Chemical Compound Co., Ltd., priority 2018, dated 2026)

Experiments:
Assay in all cases: Post-emergence test, weed control effect
Format in all cases: in vivo
Conditions in all cases: Dose 3000 g/ha, after 3 weeks
Amaranthus retroflexus = system: Amaranthus retroflexus
Excerpt: (§1) The activity level standard of harmful plant destruction (i.e. growth inhibition rate) is as follows: • Level 10: completely dead; • Level 9: above 90% growth inhibition rate; • Level 8: above 80% growth inhibition rate; • Level 7: above 70% growth inhibition rate; • Level 6: above 60% growth inhibition rate; • Level 5: above 50% growth inhibition rate; • Level 4: above 40% growth inhibition rate; • Level 3: above 30% growth inhibition rate; • Level 2: above 20% growth inhibition rate; • Level 1: below 20% growth inhibition rate; • Level 0: no effect.
(§2) The above described growth inhibition rates are fresh weight inhibition rates.
(§3) Experiment of post-emergence test: monocotyledonous and dicotyledonous weed seeds as well as main crop seeds (i.e., wheat, corn, rice, soybean, cotton, oilseed rape, millet and sorghum) were put into a plastic pot loaded with soil, then covered with 0.5-2 cm of soil, and the seeds were allowed to grow in good greenhouse environment. The test plants were treated at 2-3 leaf stage 2-3 weeks after sowing. The test compounds of the invention were dissolved in acetone respectively, then added with Tween-80 and diluted by a certain amount of water to give solutions with certain concentrations, and added with 80% vegetable oil methyl ester synergist at 1500 g/ha. The solution was sprayed to the plants with a sprayer. The plants were cultured for 3 weeks in the greenhouse.

Chenopodiaceae = system: Chenopodiaceae
Excerpt: as §1, §2, §3

Rorippa indica = system: Rorippa indica
Excerpt: as §1, §2, §3

Veronica polita = system: Veronica polita
Excerpt: as §1, §2, §3

CC(=O)Oc1cc(C(F)(F)F)nnc1-c1cccc(F)c1 [Compound 1-1]
10: weed control effect, Amaranthus retroflexus (activity level) (Amaranthus retroflexus) | weed control effect, Chenopodiaceae (activity level) (Chenopodiaceae) | weed control effect, Rorippa indica (activity level) (Rorippa indica) | weed control effect, Veronica polita (activity level) (Veronica polita)

CC(=O)Oc1cc(C(F)(F)F)nnc1-c1ccc(F)cc1 [Compound 1-2]
10: weed control effect, Amaranthus retroflexus (activity level) (Amaranthus retroflexus) | weed control effect, Chenopodiaceae (activity level) (Chenopodiaceae) | weed control effect, Rorippa indica (activity level) (Rorippa indica) | weed control effect, Veronica polita (activity level) (Veronica polita)

CCC(=O)Oc1cc(C(F)(F)F)nnc1-c1ccc(F)c(F)c1 [Compound 1-3]
10: weed control effect, Amaranthus retroflexus (activity level) (Amaranthus retroflexus) | weed control effect, Chenopodiaceae (activity level) (Chenopodiaceae) | weed control effect, Rorippa indica (activity level) (Rorippa indica) | weed control effect, Veronica polita (activity level) (Veronica polita)

CCC(=O)Oc1cc(C(F)(F)F)nnc1-c1ccc(F)cc1 [Compound 1-4]
10: weed control effect, Amaranthus retroflexus (activity level) (Amaranthus retroflexus) | weed control effect, Chenopodiaceae (activity level) (Chenopodiaceae) | weed control effect, Rorippa indica (activity level) (Rorippa indica) | weed control effect, Veronica polita (activity level) (Veronica polita)

CCCCC(=O)Oc1cc(C(F)(F)F)nnc1-c1ccc(Cl)c(Cl)c1 [Compound 1-7]
10: weed control effect, Amaranthus retroflexus (activity level) (Amaranthus retroflexus) | weed control effect, Chenopodiaceae (activity level) (Chenopodiaceae) | weed control effect, Rorippa indica (activity level) (Rorippa indica) | weed control effect, Veronica polita (activity level) (Veronica polita)

CC(C)CC(=O)Oc1cc(C(F)(F)F)nnc1-c1cccc(C(F)(F)F)c1 [Compound 1-8]
10: weed control effect, Amaranthus retroflexus (activity level) (Amaranthus retroflexus) | weed control effect, Chenopodiaceae (activity level) (Chenopodiaceae) | weed control effect, Rorippa indica (activity level) (Rorippa indica) | weed control effect, Veronica polita (activity level) (Veronica polita)

CC(C)(C)C(=O)Oc1cc(C(F)(F)F)nnc1-c1ccc(C(F)(F)F)nc1 [Compound 1-9]
10: weed control effect, Amaranthus retroflexus (activity level) (Amaranthus retroflexus) | weed control effect, Chenopodiaceae (activity level) (Chenopodiaceae) | weed control effect, Rorippa indica (activity level) (Rorippa indica) | weed control effect, Veronica polita (activity level) (Veronica polita)

CCCCCC(=O)Oc1cc(C(F)(F)F)nnc1-c1ccc(C#N)cc1 [Compound 1-10]
10: weed control effect, Amaranthus retroflexus (activity level) (Amaranthus retroflexus) | weed control effect, Chenopodiaceae (activity level) (Chenopodiaceae) | weed control effect, Rorippa indica (activity level) (Rorippa indica) | weed control effect, Veronica polita (activity level) (Veronica polita)

CCCCCCCC(=O)Oc1cc(C(F)(F)F)nnc1-c1ccc(F)c(F)c1 [Compound 1-14]
10: weed control effect, Amaranthus retroflexus (activity level) (Amaranthus retroflexus) | weed control effect, Chenopodiaceae (activity level) (Chenopodiaceae) | weed control effect, Rorippa indica (activity level) (Rorippa indica) | weed control effect, Veronica polita (activity level) (Veronica polita)

CCCCCCCCC(=O)Oc1cc(C(F)(F)F)nnc1-c1cccc(Br)c1 [Compound 1-15]
10: weed control effect, Amaranthus retroflexus (activity level) (Amaranthus retroflexus) | weed control effect, Chenopodiaceae (activity level) (Chenopodiaceae) | weed control effect, Rorippa indica (activity level) (Rorippa indica) | weed control effect, Veronica polita (activity level) (Veronica polita)

O=C(CC1CCCC1)Oc1cc(C(F)(F)F)nnc1-c1ccc(C(F)(F)F)cc1 [Compound 1-18]
10: weed control effect, Amaranthus retroflexus (activity level) (Amaranthus retroflexus) | weed control effect, Chenopodiaceae (activity level) (Chenopodiaceae) | weed control effect, Rorippa indica (activity level) (Rorippa indica) | weed control effect, Veronica polita (activity level) (Veronica polita)

O=C(Oc1cc(C(F)(F)F)nnc1-c1ccccc1)C1CCCCC1 [Compound 1-19]
10: weed control effect, Amaranthus retroflexus (activity level) (Amaranthus retroflexus) | weed control effect, Chenopodiaceae (activity level) (Chenopodiaceae) | weed control effect, Rorippa indica (activity level) (Rorippa indica) | weed control effect, Veronica polita (activity level) (Veronica polita)

CC(Cl)C(=O)Oc1cc(C(F)(F)F)nnc1-c1ccc(C(F)(F)F)cc1 (centres unmarked) [Compound 1-22]
10: weed control effect, Amaranthus retroflexus (activity level) (Amaranthus retroflexus) | weed control effect, Chenopodiaceae (activity level) (Chenopodiaceae) | weed control effect, Rorippa indica (activity level) (Rorippa indica) | weed control effect, Veronica polita (activity level) (Veronica polita)

O=C(CCCBr)Oc1cc(C(F)(F)F)nnc1-c1ccc(F)c(F)c1 [Compound 1-23]
10: weed control effect, Amaranthus retroflexus (activity level) (Amaranthus retroflexus) | weed control effect, Chenopodiaceae (activity level) (Chenopodiaceae) | weed control effect, Rorippa indica (activity level) (Rorippa indica) | weed control effect, Veronica polita (activity level) (Veronica polita)

O=C(Oc1cc(C(F)(F)F)nnc1-c1ccc(F)cc1)C(F)(F)C(F)(F)C(F)(F)F [Compound 1-25]
10: weed control effect, Amaranthus retroflexus (activity level) (Amaranthus retroflexus) | weed control effect, Chenopodiaceae (activity level) (Chenopodiaceae) | weed control effect, Rorippa indica (activity level) (Rorippa indica) | weed control effect, Veronica polita (activity level) (Veronica polita)

CCOC(=O)Oc1cc(C(F)(F)F)nnc1-c1ccc(F)c(F)c1 [Compound 1-26]
10: weed control effect, Amaranthus retroflexus (activity level) (Amaranthus retroflexus) | weed control effect, Chenopodiaceae (activity level) (Chenopodiaceae) | weed control effect, Rorippa indica (activity level) (Rorippa indica) | weed control effect, Veronica polita (activity level) (Veronica polita)

CCCCOC(=O)Oc1cc(C(F)(F)F)nnc1-c1ccc(F)cc1 [Compound 1-29]
10: weed control effect, Amaranthus retroflexus (activity level) (Amaranthus retroflexus) | weed control effect, Chenopodiaceae (activity level) (Chenopodiaceae) | weed control effect, Rorippa indica (activity level) (Rorippa indica) | weed control effect, Veronica polita (activity level) (Veronica polita)

CC(C)COC(=O)Oc1cc(C(F)(F)F)nnc1-c1cccc(C(F)(F)F)c1 [Compound 1-30]
10: weed control effect, Amaranthus retroflexus (activity level) (Amaranthus retroflexus) | weed control effect, Chenopodiaceae (activity level) (Chenopodiaceae) | weed control effect, Rorippa indica (activity level) (Rorippa indica) | weed control effect, Veronica polita (activity level) (Veronica polita)

CCCCCOC(=O)Oc1cc(C(F)(F)F)nnc1-c1ccc(F)c(F)c1 [Compound 1-31]
10: weed control effect, Amaranthus retroflexus (activity level) (Amaranthus retroflexus) | weed control effect, Chenopodiaceae (activity level) (Chenopodiaceae) | weed control effect, Rorippa indica (activity level) (Rorippa indica) | weed control effect, Veronica polita (activity level) (Veronica polita)

Cc1ccc(-c2nnc(C(F)(F)F)cc2OC(=O)OCC(C)(C)C)c([N+](=O)[O-])c1 [Compound 1-33]
10: weed control effect, Amaranthus retroflexus (activity level) (Amaranthus retroflexus) | weed control effect, Chenopodiaceae (activity level) (Chenopodiaceae) | weed control effect, Rorippa indica (activity level) (Rorippa indica) | weed control effect, Veronica polita (activity level) (Veronica polita)

CCCCCCOC(=O)Oc1cc(C(F)(F)F)nnc1-c1ccc(Cl)c([N+](=O)[O-])c1 [Compound 1-35]
10: weed control effect, Amaranthus retroflexus (activity level) (Amaranthus retroflexus) | weed control effect, Chenopodiaceae (activity level) (Chenopodiaceae) | weed control effect, Rorippa indica (activity level) (Rorippa indica) | weed control effect, Veronica polita (activity level) (Veronica polita)

CCCCC(CC)OC(=O)Oc1cc(C(F)(F)F)nnc1-c1ccc(Br)c([N+](=O)[O-])c1 (centres unmarked) [Compound 1-36]
10: weed control effect, Amaranthus retroflexus (activity level) (Amaranthus retroflexus) | weed control effect, Chenopodiaceae (activity level) (Chenopodiaceae) | weed control effect, Rorippa indica (activity level) (Rorippa indica) | weed control effect, Veronica polita (activity level) (Veronica polita)

CCCCCCCOC(=O)Oc1cc(C(F)(F)F)nnc1-c1ccc(Cl)c(Cl)c1Cl [Compound 1-38]
10: weed control effect, Amaranthus retroflexus (activity level) (Amaranthus retroflexus) | weed control effect, Chenopodiaceae (activity level) (Chenopodiaceae) | weed control effect, Rorippa indica (activity level) (Rorippa indica) | weed control effect, Veronica polita (activity level) (Veronica polita)

CCCCCCCCOC(=O)Oc1cc(C(F)(F)F)nnc1-c1ccc(C(F)(F)F)cc1 [Compound 1-40]
10: weed control effect, Amaranthus retroflexus (activity level) (Amaranthus retroflexus) | weed control effect, Chenopodiaceae (activity level) (Chenopodiaceae) | weed control effect, Rorippa indica (activity level) (Rorippa indica) | weed control effect, Veronica polita (activity level) (Veronica polita)

CCSC(=O)Oc1cc(C(F)(F)F)nnc1-c1ccc(F)c(F)c1 [Compound 1-42]
10: weed control effect, Amaranthus retroflexus (activity level) (Amaranthus retroflexus) | weed control effect, Chenopodiaceae (activity level) (Chenopodiaceae) | weed control effect, Rorippa indica (activity level) (Rorippa indica) | weed control effect, Veronica polita (activity level) (Veronica polita)

CC(C)(C)SC(=O)Oc1cc(C(F)(F)F)nnc1-c1cc(Cl)ccc1Cl [Compound 1-47]
10: weed control effect, Amaranthus retroflexus (activity level) (Amaranthus retroflexus) | weed control effect, Chenopodiaceae (activity level) (Chenopodiaceae) | weed control effect, Rorippa indica (activity level) (Rorippa indica) | weed control effect, Veronica polita (activity level) (Veronica polita)

CC(C)(C)CSC(=O)Oc1cc(C(F)(F)F)nnc1-c1cccc(Br)c1 [Compound 1-51]
10: weed control effect, Amaranthus retroflexus (activity level) (Amaranthus retroflexus) | weed control effect, Chenopodiaceae (activity level) (Chenopodiaceae) | weed control effect, Rorippa indica (activity level) (Rorippa indica) | weed control effect, Veronica polita (activity level) (Veronica polita)

COC(=O)/C=C/c1nnc(C(F)(F)F)cc1O [Compound 1522]
10: weed control effect (activity level), Amaranthus retroflexus (Amaranthus retroflexus) | weed control effect (activity level), Chenopodiaceae (Chenopodiaceae)
